“Also recorded” adds a separate entry of the source. Values belong to the molecule of their own block, whether it stands above or below them.
Key:
[1] = Incidence of gastric damage at the end of the leukocyte adherence experiment; conditions: intragastric 30 μmol/kg; for Percent Incidence of Gastric Damage: end of experiment
Experimental: Briefly, post-capillary mesenteric venules in anesthetized rats are examined under a light microscope. […] All test compounds were prepared in a vehicle of 1% carboxymethylcellulose. Changes in leukocyte adherence within the venule were recorded with a video camera attached to the microscope, and quantification of the numbers of adherent leukocytes was performed in a blind manner through evaluation of the videotaped images. Each group consisted of 5 male, Wistar rats weighing 150-175 g. A leukocyte was considered “adherent” if it remained stationary for 30 seconds or more (results below are expressed as the mean ± SEM). At the end of the experiment the stomach was opened and examined for the presence of gastric damage, under a dissecting microscope.

[2] = target: T1, COX-1 (Homo sapiens, UniProt P23219); assay: Human whole blood thromboxane B2 synthesis in vitro; type: cell-based; conditions: FIG. 12; for inhibition of COX-1 activity (thromboxane B2 synthesis by human blood): 0.1, 0.3, 1 or 3 μM, 45 min 37° C.
T1 construct: from tissue; host or cells: human whole blood from healthy volunteers
T1 sequence (P23219 24-599): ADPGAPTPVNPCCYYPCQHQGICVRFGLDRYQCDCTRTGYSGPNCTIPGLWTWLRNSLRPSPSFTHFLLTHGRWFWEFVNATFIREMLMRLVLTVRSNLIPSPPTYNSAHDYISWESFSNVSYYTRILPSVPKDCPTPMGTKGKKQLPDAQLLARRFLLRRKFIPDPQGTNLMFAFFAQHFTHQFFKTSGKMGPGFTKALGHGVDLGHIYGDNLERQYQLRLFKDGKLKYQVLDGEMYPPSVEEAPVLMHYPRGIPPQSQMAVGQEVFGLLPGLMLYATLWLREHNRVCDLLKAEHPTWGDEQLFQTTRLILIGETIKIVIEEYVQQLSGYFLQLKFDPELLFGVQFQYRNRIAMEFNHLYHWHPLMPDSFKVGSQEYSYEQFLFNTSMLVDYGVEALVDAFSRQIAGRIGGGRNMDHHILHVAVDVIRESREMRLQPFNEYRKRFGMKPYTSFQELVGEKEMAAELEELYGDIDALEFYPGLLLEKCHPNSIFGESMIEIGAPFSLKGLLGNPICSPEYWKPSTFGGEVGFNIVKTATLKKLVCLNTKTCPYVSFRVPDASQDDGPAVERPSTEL
Experimental: Aliquots (0.5 mL) of blood from healthy human volunteers were added to glass tubes containing 10 uL of methanol alone, or one of the test drugs prepared such that the final concentration would be 0.1, 0.3, 1 or 3 μM. The tubes were placed in water bath (37° C.) with gentle shaking for 45 min, after which they were centrifuged (1,000×g) for 10 minutes. The concentration of thromboxane B2 in each sample was then determined using a specific ELISA, as in the studies shown in FIG. 4.

[3] = system: gastric prostaglandin E2 (PGE2) synthesis (COX-1 and/or COX-2); assay: Gastric prostaglandin E2 (PGE2) synthesis in excised rat gastric tissue; type: in vivo; conditions: oral; doses equimolar to diclofenac 20 mg/kg; tissue taken 3 h after administration; FIG. 2
Experimental: Briefly, the tissue samples were minced with scissors for 30 min, then placed in 1 mL of sodium phosphate buffer (pH 7.4) and placed in a shaking water bath (37° C.) for 20 min.

[4] = target: T2, COX-1 (Rattus norvegicus, UniProt Q63921); assay: Whole blood thromboxane B2 synthesis of treated rats (inhibition of COX-1); type: in vivo
T2 construct: whole blood thromboxane synthesis, which occurs via COX-1; from tissue; host or cells: rat whole blood (ex vivo clotting after oral dosing)
T2 sequence (Q63921 27-602): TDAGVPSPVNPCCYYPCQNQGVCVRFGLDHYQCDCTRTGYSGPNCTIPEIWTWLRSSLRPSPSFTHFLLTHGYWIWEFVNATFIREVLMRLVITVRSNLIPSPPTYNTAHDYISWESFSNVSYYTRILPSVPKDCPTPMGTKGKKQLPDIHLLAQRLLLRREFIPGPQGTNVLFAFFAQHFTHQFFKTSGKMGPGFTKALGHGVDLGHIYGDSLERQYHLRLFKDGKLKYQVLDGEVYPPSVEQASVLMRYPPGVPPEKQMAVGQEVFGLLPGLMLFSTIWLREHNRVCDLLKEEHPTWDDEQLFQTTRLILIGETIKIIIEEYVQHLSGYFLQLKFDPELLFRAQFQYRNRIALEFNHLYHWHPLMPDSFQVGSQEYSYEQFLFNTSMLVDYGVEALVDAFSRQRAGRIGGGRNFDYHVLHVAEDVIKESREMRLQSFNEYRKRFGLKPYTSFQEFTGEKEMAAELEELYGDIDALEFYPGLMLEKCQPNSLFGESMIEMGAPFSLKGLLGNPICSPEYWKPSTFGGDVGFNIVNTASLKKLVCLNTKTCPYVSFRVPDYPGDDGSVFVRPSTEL
Experimental: Inhibition of COX-1 was also measured using the same rats. […] The samples were then centrifuged for 3 min at 9,000 g and the supernatant was frozen at −80° C. for subsequent measurement of thromboxane B2 concentrations using a specific ELISA.
Inhibition of COX-1 was also measured using the same rats, using the same method as described for FIG. 4. […]

[5] = Healing of acetic acid-induced gastric ulcers; type: in vivo, rat
Experimental: Gastric ulcers were induced via serosal application of acetic acid, as described by Elliott et al., A nitric oxide-releasing nonsteroidal anti-inflammatory drug accelerates gastric ulcer healing in rats. Gastroenterology 1995; 109: 524-530. […] After 4 days of such treatment, the rats were euthanized and the stomach was excised and photographed. The area (in mm^2) of the ulcer was determined planimetrically by an individual unaware of the treatments given to the rats. In a subgroup of 5 rats euthanized 3 days after induction of gastric ulcers (i.e., prior to initiation of drug treatment), the mean surface area of the ulcers was 24±2 mm^2.

[6] = target: T3, COX-2 (Rattus norvegicus, UniProt P35355); assay: Rat airpouch assay, exudate PGE2 after zymosan (inhibition of COX-2 in vivo)
T3 construct: from tissue; host or cells: rat subcutaneous airpouch (in vivo, zymosan-induced inflammation)
T3 sequence (P35355 18-604): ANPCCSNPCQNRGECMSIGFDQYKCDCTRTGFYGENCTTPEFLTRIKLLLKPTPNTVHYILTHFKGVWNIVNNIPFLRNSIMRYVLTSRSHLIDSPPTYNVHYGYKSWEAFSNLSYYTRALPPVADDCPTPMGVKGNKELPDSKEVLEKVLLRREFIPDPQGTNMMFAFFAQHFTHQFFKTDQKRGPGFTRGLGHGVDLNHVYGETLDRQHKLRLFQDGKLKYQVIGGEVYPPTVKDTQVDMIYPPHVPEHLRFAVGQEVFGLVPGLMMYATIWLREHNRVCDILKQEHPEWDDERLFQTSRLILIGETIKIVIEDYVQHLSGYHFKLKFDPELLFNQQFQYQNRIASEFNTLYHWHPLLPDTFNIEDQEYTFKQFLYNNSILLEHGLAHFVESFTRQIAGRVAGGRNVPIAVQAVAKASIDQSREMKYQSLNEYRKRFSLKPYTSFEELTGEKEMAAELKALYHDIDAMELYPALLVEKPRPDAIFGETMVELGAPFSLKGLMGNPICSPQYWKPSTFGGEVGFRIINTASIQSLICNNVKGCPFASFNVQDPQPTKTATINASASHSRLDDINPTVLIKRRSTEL
Experimental: Briefly, a subcutaneous “pouch” is created by repeated injections of air over several days. Once established, inflammation in the pouch can be induced by injection of 1 mL of 1% zymosan. […] Another group of 5 rats was treated with the vehicle, but received an injection of 0.9% sterile saline into the pouch rather than zymosan. […]
Each group consisted of 5 rats.

[7] = system: leukocyte adherence to the vascular endothelium; assay: Leukocyte adherence to the vascular endothelium, intravital microscopy of mesenteric venules; conditions: intragastric 30 μmol/kg; for Number of Adherent Leukocytes: mean ± SEM
Experimental: Briefly, post-capillary mesenteric venules in anesthetized rats are examined under a light microscope. […] All test compounds were prepared in a vehicle of 1% carboxymethylcellulose. Changes in leukocyte adherence within the venule were recorded with a video camera attached to the microscope, and quantification of the numbers of adherent leukocytes was performed in a blind manner through evaluation of the videotaped images. Each group consisted of 5 male, Wistar rats weighing 150-175 g. A leukocyte was considered “adherent” if it remained stationary for 30 seconds or more (results below are expressed as the mean ± SEM).

[8] = Small intestinal injury after repeated administration; conditions: 50 μmol/kg at time 0, 12 and 24 hours; assessed 24 h after final dose; FIG. 5
[9] = Gastric damage (gastric damage score) in rats after oral dosing; conditions: rats fasted 18 h; oral; doses equimolar to diclofenac 20 mg/kg; 3 h after administration; FIG. 1
[10] = Hematocrit before and after repeated administration; type: in vivo, rat; conditions: 50 μmol/kg at time 0, 12 and 24 hours; start versus 24 h after final dose; FIG. 6
Description: Another group of rats received vehicle (1% carboxymethylcellulose).

[11] = Carrageenan hindpaw edema model; type: in vivo, rat; conditions: 30 min prior to carrageenan
Experimental: Male, Wistar rats weighing 175-200 g were given the test compounds orally 30 min prior to subplantar injection of 100 ul of 1% lambda carrageenan. Paw volume measured using an Ugo Basile hydroplethysmometer prior to carrageenan injection and at 1-h intervals thereafter for 5 h.

[12] = Systolic blood pressure in hypertensive (L-NAME) rats; conditions: 30 μmol/kg intraperitoneal bolus; recorded for 60 minutes; FIG. 14

Compound: COc1ccc2c(c1)c(CC(=O)Oc1ccc(C(N)=S)cc1)c(C)n2C(=O)c1ccc(Cl)cc1 [Compound XIX, [1-(4-Chloro-benzoyl)-5-methoxy-2-methyl-1-H-indol-3-yl]-acetic acid 4-thiocarbamoyl-phenyl ester]
Percent Incidence of Gastric Damage [1]: 0%
inhibition of COX-1 activity (thromboxane B2 synthesis by human blood) [2]: concentration-dependent inhibition of COX-1 activity as compared to the vehicle-treated group; also recorded: significantly better at inhibiting thromboxane B2 synthesis than the ADT-OH equivalent, Compound IV
inhibition of COX-1 activity compared with indomethacin ([2]; concentrations of 1 and 3 μM): significantly greater (*p<0.05) inhibition of COX-1 activity than that produced by indomethacin

Compound: NC(=S)c1ccc(O)cc1 [TBZ, 4-hydroxythiobenzamide, reference compound]
gastric PGE2 synthesis [3]: did not reduce gastric PGE2 synthesis when compared to vehicle
COX-1 activity (whole blood thromboxane synthesis) ([4]; hydrogen sulfide releasing moieties alone, dose not given, FIG. 8): neither of the hydrogen sulfide releasing moieties (ADT-OH and TBZ) significantly affected COX-1 activity
gastric ulcer healing (ulcer area) ([5]; hydrogen sulfide releasing moiety alone, dose not given): did not significantly affect the healing of gastric ulcers as compared to the vehicle-treated group
COX-2 activity (exudate PGE2) ([6]; hydrogen sulfide releasing moieties alone, dose not given): neither of the hydrogen sulfide releasing moieties (ADT-OH and TBZ) significantly affected COX-2 activity

Compound: COc1ccc2c(c1)c(CC(=O)Oc1ccc(-c3cc(=S)ss3)cc1)c(C)n2C(=O)c1ccc(Cl)cc1 [Compound IV, [1-(4-Chloro-benzoyl)-5-methoxy-2-methyl-1-H-indol-3-yl]-acetic acid 4-(5-thioxo-5-H-[1,2]dithiol-3-yl)-phenyl ester]
Percent Incidence of Gastric Damage [1]: 20%
inhibition of COX-1 activity (thromboxane B2 synthesis by human blood) [2]: concentration-dependent inhibition of COX-1 activity as compared to the vehicle-treated group
Number of Adherent Leukocytes [7]: 3.6 ± 0.7 per 100 μm vessel length

inhibition at 4.8 mg/kg ([4]; rat, po): > 80%
Number of Adherent Leukocytes [7]: 3.0 ± 0.5 per 100 μm vessel length
hematocrit [10]: no significant effect on hematocrit
Compound: O=C(Cc1ccccc1Nc1c(Cl)cccc1Cl)Oc1ccc(-c2cc(=S)ss2)cc1 [Compound II, [2-(2,6-dichloro-phenylamino)-phenyl]-acetic acid 4-(5-thioxo-5H-[1,2]dithiol-3-yl)-phenyl ester]
extent of small intestinal damage, less than in rats treated with diclofenac [8]: > 90%
gastric PGE2 synthesis [3]: significantly reduced the amount of gastric PGE2 synthesis; also recorded: near-complete
percent incidence of gastric damage compared to the parent NSAID alone [1]: significantly reduced the percent incidence of gastric damage when compared to diclofenac alone
Percent Incidence of Gastric Damage [1]: 0%
gastric damage score [9]: no gastric damage was seen; also recorded: elicited significantly less gastric damage than diclofenac
number of adherent leukocytes compared to the parent NSAID alone [7]: significantly reduced the number of adherent leukocytes per 100 μm vessel length
concentrations of PGE2 within the pouch (COX-2) ([6]; oral 30 min before injection, diclofenac 3 mg/kg, Compound II 4.8 mg/kg, Compound XVII 4.1 mg/kg, 1% zymosan, FIG. 7): markedly reduced the concentrations of PGE2 within the pouch
paw edema (paw volume increase) ([11]; oral, dose equimolar to diclofenac at 3 mg/kg, compared with diclofenac, FIGS. 9, 10, 3 mg/kg): reduced paw edema to a greater extent; also recorded: comparable to the effect of diclofenac at a dose of 10 mg/kg
change in systolic blood pressure [12]: did not increase systolic blood pressure as compared to the vehicle-treated group; also recorded: significantly lower than that induced by diclofenac and naproxen, respectively

hematocrit [10]: profound reduction of hematocrit
Compound: O=C(O)Cc1ccccc1Nc1c(Cl)cccc1Cl [Diclofenac, diclofenac, reference compound]
small intestinal damage (erosions/ulcers) [8]: extensive erosions and ulcers in the small intestine
gastric ulcer healing (ulcer area) ([5]; 30 μmol/kg twice-daily orally for 4 days, starting 3 days after ulcer induction, FIG. 13): exhibited similar degrees of healing
paw edema (paw volume increase) ([11]; oral 1, 3 or 10 mg/kg, FIG. 9): dose-dependently reduced paw edema
change in systolic blood pressure [12]: caused a substantial increase in systolic blood pressure

Reference: patent publication US7741359B2, “Hydrogen sulfide derivatives of non-steroidal anti-inflammatory drugs” (Antibe Therapeutics Inc., priority 2006, dated 2010)
